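Compound exposure: 48 hours, 5 concentrations, 96-well plates. GI50 = concentration required for 50% inhibition of growth. TGI: concentration producing complete growth inhibition.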
Assays:
Assay in all cases: growth of human tumour cells (NCI), 48 h
MALME-3M melanoma = system: MALME-3M melanoma
HCT-116 colon = system: HCT-116 colon
LOX IMVI melanoma = system: LOX IMVI melanoma
MCF7 breast = system: MCF7 breast
CCRF-CEM leukemia = system: CCRF-CEM leukemia
HS 578T breast = system: HS 578T breast
HCT-15 colon = system: HCT-15 colon
NCI-H23 lung = system: NCI-H23 lung
SK-MEL-28 melanoma = system: SK-MEL-28 melanoma
HCC-2998 colon = system: HCC-2998 colon
SNB-19 CNS = system: SNB-19 CNS
UACC-62 melanoma = system: UACC-62 melanoma
M14 melanoma = system: M14 melanoma
MDA-MB-231 breast = system: MDA-MB-231 breast
IGROV1 ovarian = system: IGROV1 ovarian
SN12C renal = system: SN12C renal
MDA-MB-435 = system: MDA-MB-435
SK-MEL-5 melanoma = system: SK-MEL-5 melanoma
EKVX NSCLC = system: EKVX NSCLC
ACHN renal = system: ACHN renal
KM12 colon = system: KM12 colon
UO-31 renal = system: UO-31 renal
SF-295 CNS = system: SF-295 CNS
SF-539 CNS = system: SF-539 CNS
OVCAR-5 ovarian = system: OVCAR-5 ovarian
COLO 205 colon = system: COLO 205 colon
786-0 renal = system: 786-0 renal
A549 NSCLC = system: A549 NSCLC
SK-MEL-2 melanoma = system: SK-MEL-2 melanoma
MOLT-4 leukemia = system: MOLT-4 leukemia
RXF 393 renal = system: RXF 393 renal
OVCAR-8 ovarian = system: OVCAR-8 ovarian
HOP-92 NSCLC = system: HOP-92 NSCLC
SNB-75 CNS = system: SNB-75 CNS
SK-OV-3 ovarian = system: SK-OV-3 ovarian
SW-620 colon = system: SW-620 colon
OVCAR-4 ovarian = system: OVCAR-4 ovarian
SF-268 CNS = system: SF-268 CNS
NCI-H226 lung = system: NCI-H226 lung
DU-145 prostate = system: DU-145 prostate
BT-549 breast = system: BT-549 breast
CAKI-1 renal = system: CAKI-1 renal
A498 renal = system: A498 renal
HL-60(TB) leukemia = system: HL-60(TB) leukemia
PC-3 prostate = system: PC-3 prostate
TK-10 renal = system: TK-10 renal
K-562 leukemia = system: K-562 leukemia
T-47D breast = system: T-47D breast
UACC-257 melanoma = system: UACC-257 melanoma
NCI/ADR-RES ovarian = system: NCI/ADR-RES ovarian
NCI-H522 lung = system: NCI-H522 lung
RPMI-8226 leukemia = system: RPMI-8226 leukemia
U251 CNS = system: U251 CNS
NCI-H460 lung = system: NCI-H460 lung
HT29 colon = system: HT29 colon
SR leukemia = system: SR leukemia
HOP-62 NSCLC = system: HOP-62 NSCLC

CCOC(=O)c1c(NC(=O)c2cccc(C(F)(F)F)c2)sc2c(CN3CCN(C)CC3)c(O)ccc12 showed a GI50 (MALME-3M melanoma) of 1650 nM, a TGI (MALME-3M melanoma) of 3150 nM and a GI50 (HCT-116 colon) of 1000 nM. For the same compound, the TGI (HCT-116 colon) was 2430 nM, the GI50 (LOX IMVI melanoma) was 1760 nM and the TGI (LOX IMVI melanoma) was 3310 nM. It also gave a GI50 (MCF7 breast) of 1510 nM, a TGI (MCF7 breast) of 3030 nM and a GI50 (CCRF-CEM leukemia) of 1510 nM. For the same compound, the TGI (CCRF-CEM leukemia) was 4220 nM, the GI50 (HS 578T breast) was 1890 nM and the TGI (HS 578T breast) was 4510 nM. The GI50 (HCT-15 colon) was 1610 nM, the TGI (HCT-15 colon) was 3130 nM and the GI50 (NCI-H23 lung) was 1760 nM. The TGI (NCI-H23 lung) was 3280 nM, the GI50 (SK-MEL-28 melanoma) was 1720 nM and the TGI (SK-MEL-28 melanoma) was 3150 nM. It also gave a GI50 (HCC-2998 colon) of 1650 nM, a TGI (HCC-2998 colon) of 3370 nM and a GI50 (SNB-19 CNS) of 1720 nM. For the same compound, the TGI (SNB-19 CNS) was 3310 nM, the GI50 (UACC-62 melanoma) was 1760 nM and the TGI (UACC-62 melanoma) was 3270 nM. For the same compound, the GI50 (M14 melanoma) was 1880 nM, the TGI (M14 melanoma) was 3530 nM and the GI50 (MDA-MB-231 breast) was 1650 nM. It also gave a TGI (MDA-MB-231 breast) of 3110 nM, a GI50 (IGROV1 ovarian) of 1700 nM and a TGI (IGROV1 ovarian) of 3270 nM. It also gave a GI50 (SN12C renal) of 1670 nM, a TGI (SN12C renal) of 3160 nM and a GI50 (MDA-MB-435) of 1690 nM. It also gave a TGI (MDA-MB-435) of 3100 nM, a GI50 (SK-MEL-5 melanoma) of 1790 nM and a TGI (SK-MEL-5 melanoma) of 3400 nM. It also gave a GI50 (EKVX NSCLC) of 1690 nM, a TGI (EKVX NSCLC) of 3310 nM and a GI50 (ACHN renal) of 1820 nM. It also gave a TGI (ACHN renal) of 3310 nM, a GI50 (KM12 colon) of 1860 nM and a TGI (KM12 colon) of 3400 nM. It also gave a GI50 (UO-31 renal) of 1520 nM, a TGI (UO-31 renal) of 3000 nM and a GI50 (SF-295 CNS) of 1700 nM. The TGI (SF-295 CNS) was 3250 nM, the GI50 (SF-539 CNS) was 1620 nM and the TGI (SF-539 CNS) was 3060 nM. The GI50 (OVCAR-5 ovarian) was 1500 nM and the TGI (OVCAR-5 ovarian) was 2850 nM.

Compound N#Cc1c(NC(=O)c2cccc(C(F)(F)F)c2F)sc2c1CCC(=O)C2 has a GI50 (MALME-3M melanoma) of 266 nM, a TGI (MALME-3M melanoma) of 694 nM and a GI50 (COLO 205 colon) of 210 nM. The TGI (COLO 205 colon) was 437 nM, the GI50 (HCT-116 colon) was 124 nM and the TGI (HCT-116 colon) was 1260 nM. For the same compound, the GI50 (LOX IMVI melanoma) was 311 nM, the TGI (LOX IMVI melanoma) was 1180 nM and the GI50 (MCF7 breast) was 276 nM. The TGI (MCF7 breast) was > 23000 nM, the GI50 (CCRF-CEM leukemia) was 190 nM and the TGI (CCRF-CEM leukemia) was > 100000 nM. For the same compound, the GI50 (HS 578T breast) was 357 nM, the TGI (HS 578T breast) was 2320 nM and the GI50 (HCT-15 colon) was 246 nM. For the same compound, the TGI (HCT-15 colon) was 1140 nM, the GI50 (786-0 renal) was 444 nM and the TGI (786-0 renal) was > 47500 nM. For the same compound, the GI50 (A549 NSCLC) was 1880 nM, the TGI (A549 NSCLC) was > 100000 nM and the GI50 (NCI-H23 lung) was 337 nM. It also gave a TGI (NCI-H23 lung) of 2070 nM, a GI50 (SK-MEL-2 melanoma) of 2150 nM and a TGI (SK-MEL-2 melanoma) of 5330 nM. It also gave a GI50 (SK-MEL-28 melanoma) of 475 nM, a TGI (SK-MEL-28 melanoma) of 1790 nM and a GI50 (HCC-2998 colon) of 588 nM. The TGI (HCC-2998 colon) was 2090 nM, the GI50 (MOLT-4 leukemia) was 308 nM and the TGI (MOLT-4 leukemia) was > 37700 nM. The GI50 (RXF 393 renal) was 221 nM, the TGI (RXF 393 renal) was 714 nM and the GI50 (OVCAR-8 ovarian) was 356 nM. For the same compound, the TGI (OVCAR-8 ovarian) was > 100000 nM, the GI50 (HOP-92 NSCLC) was 243 nM and the TGI (HOP-92 NSCLC) was 679 nM. It also gave a GI50 (SNB-75 CNS) of 459 nM, a TGI (SNB-75 CNS) of 3550 nM and a GI50 (SK-OV-3 ovarian) of 1960 nM. For the same compound, the TGI (SK-OV-3 ovarian) was 6370 nM, the GI50 (SNB-19 CNS) was 410 nM and the TGI (SNB-19 CNS) was 15600 nM. For the same compound, the GI50 (UACC-62 melanoma) was 317 nM, the TGI (UACC-62 melanoma) was 1330 nM and the GI50 (SW-620 colon) was 225 nM. For the same compound, the TGI (SW-620 colon) was 1460 nM, the GI50 (M14 melanoma) was 378 nM and the TGI (M14 melanoma) was 2100 nM. The GI50 (MDA-MB-231 breast) was 356 nM, the TGI (MDA-MB-231 breast) was 1350 nM and the GI50 (IGROV1 ovarian) was 490 nM. For the same compound, the TGI (IGROV1 ovarian) was 2200 nM, the GI50 (OVCAR-4 ovarian) was 393 nM and the TGI (OVCAR-4 ovarian) was 1730 nM. For the same compound, the GI50 (SF-268 CNS) was 408 nM, the TGI (SF-268 CNS) was > 100000 nM and the GI50 (NCI-H226 lung) was 487 nM. The TGI (NCI-H226 lung) was 2570 nM, the GI50 (SN12C renal) was 326 nM and the TGI (SN12C renal) was 2220 nM. The GI50 (DU-145 prostate) was 1270 nM, the TGI (DU-145 prostate) was > 100000 nM and the GI50 (BT-549 breast) was 308 nM. It also gave a TGI (BT-549 breast) of 1430 nM, a GI50 (MDA-MB-435) of 336 nM and a TGI (MDA-MB-435) of 1400 nM. For the same compound, the GI50 (SK-MEL-5 melanoma) was 372 nM, the TGI (SK-MEL-5 melanoma) was 1320 nM and the GI50 (EKVX NSCLC) was 563 nM. It also gave a TGI (EKVX NSCLC) of 4400 nM, a GI50 (CAKI-1 renal) of 221 nM and a TGI (CAKI-1 renal) of 866 nM. The GI50 (ACHN renal) was 296 nM, the TGI (ACHN renal) was 1010 nM and the GI50 (A498 renal) was 2190 nM. The TGI (A498 renal) was 5930 nM, the GI50 (KM12 colon) was 464 nM and the TGI (KM12 colon) was 1980 nM. For the same compound, the GI50 (HL-60(TB) leukemia) was 235 nM, the TGI (HL-60(TB) leukemia) was 10900 nM and the GI50 (PC-3 prostate) was 114 nM. It also gave a TGI (PC-3 prostate) of 1480 nM, a GI50 (TK-10 renal) of 330 nM and a GI50 (K-562 leukemia) of 112 nM. The TGI (K-562 leukemia) was > 100000 nM, the GI50 (UO-31 renal) was 220 nM and the TGI (UO-31 renal) was 730 nM. It also gave a GI50 (T-47D breast) of 151 nM, a TGI (T-47D breast) of 1650 nM and a GI50 (UACC-257 melanoma) of 624 nM. It also gave a TGI (UACC-257 melanoma) of 3180 nM, a GI50 (NCI/ADR-RES ovarian) of 345 nM and a TGI (NCI/ADR-RES ovarian) of 1820 nM. For the same compound, the GI50 (NCI-H522 lung) was 194 nM, the TGI (NCI-H522 lung) was 719 nM and the GI50 (SF-295 CNS) was 515 nM. For the same compound, the TGI (SF-295 CNS) was 2420 nM, the GI50 (RPMI-8226 leukemia) was 66.4 nM and the GI50 (U251 CNS) was 356 nM. For the same compound, the TGI (U251 CNS) was 2240 nM, the GI50 (SF-539 CNS) was 244 nM and the TGI (SF-539 CNS) was 800 nM. For the same compound, the GI50 (NCI-H460 lung) was 549 nM, the TGI (NCI-H460 lung) was > 38900 nM and the GI50 (HT29 colon) was 226 nM. The TGI (HT29 colon) was 1310 nM, the GI50 (OVCAR-5 ovarian) was 392 nM and the TGI (OVCAR-5 ovarian) was 1780 nM. For the same compound, the GI50 (SR leukemia) was 76.1 nM, the TGI (SR leukemia) was > 100000 nM and the GI50 (HOP-62 NSCLC) was 782 nM.
